{"source": "paper PMC9233675", "about": "“Ru(II) photocages enable precise control over enzyme activity with red light” (Nature Communications, 2022)", "key": {"[1]": {"experiment": "Stability of compounds in rat liver microsomes"}, "[2]": {"experiment": "Stability of compounds in human liver microsomes"}, "[3]": {"biological_target": "T1, CYP1B1 Q332E (Homo sapiens, UniProt Q16678, Q332E)", "T1 sequence (Q16678 1-543 Q332E)": "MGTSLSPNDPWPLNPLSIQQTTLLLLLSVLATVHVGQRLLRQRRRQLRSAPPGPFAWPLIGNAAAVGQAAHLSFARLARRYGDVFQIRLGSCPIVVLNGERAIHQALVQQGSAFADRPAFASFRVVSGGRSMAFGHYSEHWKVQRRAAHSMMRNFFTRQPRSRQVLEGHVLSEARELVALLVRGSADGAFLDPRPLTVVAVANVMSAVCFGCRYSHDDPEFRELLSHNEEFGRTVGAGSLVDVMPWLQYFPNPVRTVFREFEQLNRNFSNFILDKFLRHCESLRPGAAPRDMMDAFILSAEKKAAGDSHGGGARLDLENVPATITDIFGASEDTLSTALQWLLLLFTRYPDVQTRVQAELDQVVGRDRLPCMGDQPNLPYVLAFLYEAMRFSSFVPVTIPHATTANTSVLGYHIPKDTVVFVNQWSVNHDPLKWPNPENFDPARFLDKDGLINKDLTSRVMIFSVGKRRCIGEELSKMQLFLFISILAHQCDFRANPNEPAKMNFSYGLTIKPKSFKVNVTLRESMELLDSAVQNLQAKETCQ", "experiment": "In cell CYP1B1 activity assay, Q332E variant", "details": "log of the ratio of IC50 values mutant vs WT (Fig. 3c)"}, "[4]": {"experiment": "Cellular viability (resazurin to resorufin, 72 h)", "assay_type": "cell-based, human", "details": "human, parental HEK293 T-Rex cells, HEK293 T-Rex, after 72 hrs", "description": "(§1) The cells were >70% viable at 72 h with 10 μM compound, as quantified by metabolically active cells determined by the conversion of resazurin to resorufin (Supplementary Figs. 18–20).\n(§2) The parental HEK T-Rex cell line was maintained as above, in the absence of Zeocin. Compounds were serially diluted in media, and the cells were dosed from 0–30 μM compound, and then incubated at 37 °C (n = 3). […] The cells were incubated with the compound in the dark for 30 min prior to light exposure, using the same parameters as in the enzyme activity assay, and then treated as above."}, "[5]": {"system": "HEK293 T-Rex cell line", "experiment": "Cellular viability (resazurin to resorufin, 72 h)", "assay_type": "cell-based, human", "details": "HEK293 T-Rex, after 72 hrs", "description": "as §1, §2"}, "[6]": {"biological_target": "T2, CYP1A1 (Homo sapiens, UniProt P04798)", "T2 sequence (P04798 1-512)": "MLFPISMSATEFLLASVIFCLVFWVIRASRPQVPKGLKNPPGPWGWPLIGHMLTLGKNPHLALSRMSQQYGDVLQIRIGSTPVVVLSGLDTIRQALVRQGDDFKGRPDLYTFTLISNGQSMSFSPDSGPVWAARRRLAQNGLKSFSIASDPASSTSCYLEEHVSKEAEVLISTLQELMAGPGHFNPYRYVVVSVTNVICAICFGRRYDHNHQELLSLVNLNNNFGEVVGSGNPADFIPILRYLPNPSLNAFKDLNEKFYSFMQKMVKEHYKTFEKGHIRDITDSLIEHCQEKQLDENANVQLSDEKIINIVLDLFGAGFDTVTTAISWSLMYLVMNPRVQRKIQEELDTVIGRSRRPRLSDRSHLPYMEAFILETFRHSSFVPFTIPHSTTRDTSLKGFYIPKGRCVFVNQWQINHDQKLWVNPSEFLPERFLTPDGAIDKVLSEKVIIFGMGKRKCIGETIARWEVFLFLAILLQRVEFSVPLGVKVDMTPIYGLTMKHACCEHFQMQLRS", "experiment": "In cell activity assay for CYP1A1 (7-ethoxyresorufin conversion, HEK293 T-Rex cells)", "details": "CYP1A1, dark", "excerpt": "A stable HEK cell line was created with CYP1B1 expression under the control of tetracycline to facilitate regulated and titratable expression (see the Methods section for more details). A cell line was also created for CYP1A1 as a counter screen to evaluate selectivity. […] The fluorogenic substrate, 7-ethoxyresorufin (REE), is a validated substrate for both CYPs and was used in both assays. Cytochrome P450 oxidoreductase (POR) is the required reductase partner for CYPs, and was also overexpressed in these systems to improve catalytic efficiency and the resulting signal for the assay.\nBoth the CYP and POR expression was under the control of the TetO2 inducible CMV promoter[26].\nCell lines were generated in the HEK293 T-Rex cell line. Following transfection, cells were selected with 500 μg/mL Zeocin, and 7.5 μg/mL Blasticidin to create a stable pool. Inducible expression of CYP and POR was confirmed by immunoblot. […] The lines were maintained with 250 μg/mL Zeocin and 7.5 μg/mL Blasticidin to ensure continued selective pressure.\n(§3) Cell lines were seeded onto Geltrex coated 96-well plates at 40,000 cells/well, and grown overnight in DMEM media containing 1 μg/mL tetracycline. The media was then replaced with Opti-MEM supplemented with 2% FBS and 1 μg/mL tetracycline. Compounds were serially diluted in Opti-MEM supplemented with 2% FBS and 1 μg/mL tetracycline and an equal volume of compound added to the cells (n = 3). Following a 1 h incubation, resorufin ethyl ether (REE; for CYP1B1 and 1A1) or dibenzylfluorescein (DBF; for 19A1) was added to the cells for a total concentration of 5 μM for REE and 1 μM for DBF. […] Dose–response curves were generated in Prism and normalized using the no-compound control (set as 100% activity) and the no-cell control (set as 0% activity; this value in the raw data reflects the background fluorescence of the dye alone).\nFor the light-activated compounds, the experiment was modified as follows: Cells were seeded and grown overnight as described above. Media was replaced with L-15 containing 1 μg/mL tetracycline; L-15 media was used in place of opti-MEM™ to maintain CO2 outside the incubator, and to prevent cellular damage from light. Compounds were serially diluted in L-15 with 1 μg/mL tetracycline and added to the cells followed by a 1 h incubation. […] REE or DBF was added as described above."}, "[7]": {"biological_target": "T3, CYP1B1 D333N (Homo sapiens, UniProt Q16678, D333N)", "T3 sequence (Q16678 1-543 D333N)": "T1 sequence (Q16678 1-543 Q332E) with E332Q, D333N", "experiment": "In cell CYP1B1 activity assay, D333N variant", "details": "log of the ratio of IC50 values mutant vs WT (Fig. 3c)", "excerpt": "Site directed mutagenesis was used to probe the importance of specific active-site contacts identified through the structural assessment (Fig. 3a, b) and simulations. In all cases, conservative mutations were made to maintain polar or hydrophobic character and approximate size. The aromatic residues that frame the inhibitor binding site, Phe143 and Phe231, were mutated to Leu to determine the importance of the π interactions. In addition, the Ser127 residue, located in the upper corner of the active site on the B-C loop, was chosen for mutation based on the simulations. This amino acid transiently contacts the inhibitors, but also forms a hydrogen bond with Asp326 of the I-helix, and thus may impact the position of this helix with regards to the B-C loop. […] Rather than directly mutating these residues in the I-helix, neighboring residues Gln332 and Asp333 were targeted, with the hope of interrupting amino acid interactions that position the helix within the active site.\nThe ratio of IC50 values for the WT vs. the mutant are shown in Fig. 3c and reflects the importance of the specific contact; the log of the value is used to aid in visualization.\nas §3"}}, "note": "Where a chain is given by its changes, count along the chain named. Where “and” joins values, the source holds several entries; their conditions need not be identical. Equal values may be shown once."}
{"smiles": "COc1ccc(C=Cc2ccncc2)c(OC)c1", "note": "[Compound 3]", "values": [{"measurement": "Remaining, % (NCF=60min)", "setting": "[1]; rat liver microsomes, no co-factor (no NADPH)", "value": 108.6, "unit": "%"}, {"measurement": "CLint scaled", "setting": "[1]; rat, liver microsomes", "value": 14.4, "unit": "L/h/kg"}, {"measurement": "Remaining, % (T=60min)", "setting": "[1]; rat, liver microsomes", "value": 1.4, "unit": "%"}, {"measurement": "half-life", "setting": "[1]; rat, liver microsomes", "value": 10.4, "unit": "min"}, {"measurement": "microsomal CLint", "setting": "[1]; rat, liver microsomes", "value": 134, "unit": "µL/min/mg"}, {"measurement": "Remaining, % (NCF=60min)", "setting": "[2]; human liver microsomes, no co-factor (no NADPH)", "value": 92.1, "unit": "%"}, {"measurement": "CLint scaled", "setting": "[2]; human, liver microsomes", "value": 9.28, "unit": "L/h/kg"}, {"measurement": "Remaining, % (T=60min)", "setting": "[2]; human, liver microsomes", "value": 0.6, "unit": "%"}, {"measurement": "half-life", "setting": "[2]; human, liver microsomes", "value": 8.07, "unit": "min"}, {"measurement": "microsomal CLint", "setting": "[2]; human, liver microsomes", "value": 172, "unit": "µL/min/mg"}, {"measurement": "logSI Q332E", "setting": "[3]", "value": 2.2}, {"measurement": "viability at 72 h, 1.11 μM", "setting": "[4]; Log Conc 0.045757", "value": 96.6, "unit": "%"}, {"measurement": "viability at 72 h, 30 μM", "setting": "[4]; Log Conc 1.47712", "value": 140, "unit": "%"}, {"measurement": "viability at 72 h, 0.37 μM", "setting": "[4]; Log Conc -0.43136", "value": 92.3, "unit": "%"}, {"measurement": "viability at 72 h, 0.123 μM", "setting": "[4]; Log Conc -0.90849", "value": 93.3, "unit": "%"}, {"measurement": "viability at 72 h, 0.0412 μM", "setting": "[4]; Log Conc -1.38561", "value": 90.3, "unit": "%"}, {"measurement": "viability at 72 h, 0.0137 μM", "setting": "[4]; Log Conc -1.86273", "value": 103, "unit": "%"}, {"measurement": "% Viable", "setting": "[5]; Log Conc 0.045757", "value": "97.2552% and 97.1817%"}, {"measurement": "% Viable", "setting": "[5]; Log Conc 0.522879", "value": "116.518% and 106.568% and 128.158%"}, {"measurement": "% Viable", "setting": "[5]; Log Conc 1", "value": "141.882% and 148.217% and 166.23%"}, {"measurement": "% Viable", "setting": "[5]; Log Conc 1.47712", "value": "142.875% and 157.603%"}, {"measurement": "% Viable", "setting": "[5]; Log Conc -0.43136", "value": "103.982% and 85.443%"}, {"measurement": "% Viable", "setting": "[5]; Log Conc -0.90849", "value": "97.2307% and 93.9713%"}, {"measurement": "% Viable", "setting": "[5]; Log Conc -1.38561", "value": "97.0469% and 84.1196%"}, {"measurement": "% Viable", "setting": "[5]; Log Conc -1.86273", "value": "98.309% and 101.936%"}, {"measurement": "% Enzyme Activity", "setting": "[6]; Log Conc 0.045757", "value": "84.2841% and 102.432% and 105%"}, {"measurement": "% Enzyme Activity", "setting": "[6]; Log Conc 0.522879", "value": "59.4676% and 67.9492% and 76.5686%"}, {"measurement": "% Enzyme Activity", "setting": "[6]; Log Conc 1", "value": "14.8056% and 20.3883% and 24.2847%"}, {"measurement": "% Enzyme Activity", "setting": "[6]; Log Conc 1.47712", "value": "0.5263% and 0.2508% and 0.3665%"}, {"measurement": "% Enzyme Activity", "setting": "[6]; Log Conc -0.43136", "value": "103.457% and 112.898% and 125.706%"}, {"measurement": "% Enzyme Activity", "setting": "[6]; Log Conc -0.90849", "value": "103.209% and 120.806% and 117.825%"}, {"measurement": "% Enzyme Activity", "setting": "[6]; Log Conc -1.38561", "value": "95.9953% and 108.125% and 129.481%"}, {"measurement": "% Enzyme Activity", "setting": "[6]; Log Conc -1.86273", "value": "106.428% and 95.389% and 98.1832%"}, {"measurement": "logSI D333N", "setting": "[7]", "value": 3.4}]}
